From ChEMBL document CHEMBL1201862, “PubChem BioAssay data set” (2004)
The source made the active and inactive calls.

How the values were obtained:
[1] = target: T1, Histone-lysine N-methyltransferase NSD2 (Homo sapiens, UniProt O96028); assay type: biochemical
T1 sequence (O96028 whole entry): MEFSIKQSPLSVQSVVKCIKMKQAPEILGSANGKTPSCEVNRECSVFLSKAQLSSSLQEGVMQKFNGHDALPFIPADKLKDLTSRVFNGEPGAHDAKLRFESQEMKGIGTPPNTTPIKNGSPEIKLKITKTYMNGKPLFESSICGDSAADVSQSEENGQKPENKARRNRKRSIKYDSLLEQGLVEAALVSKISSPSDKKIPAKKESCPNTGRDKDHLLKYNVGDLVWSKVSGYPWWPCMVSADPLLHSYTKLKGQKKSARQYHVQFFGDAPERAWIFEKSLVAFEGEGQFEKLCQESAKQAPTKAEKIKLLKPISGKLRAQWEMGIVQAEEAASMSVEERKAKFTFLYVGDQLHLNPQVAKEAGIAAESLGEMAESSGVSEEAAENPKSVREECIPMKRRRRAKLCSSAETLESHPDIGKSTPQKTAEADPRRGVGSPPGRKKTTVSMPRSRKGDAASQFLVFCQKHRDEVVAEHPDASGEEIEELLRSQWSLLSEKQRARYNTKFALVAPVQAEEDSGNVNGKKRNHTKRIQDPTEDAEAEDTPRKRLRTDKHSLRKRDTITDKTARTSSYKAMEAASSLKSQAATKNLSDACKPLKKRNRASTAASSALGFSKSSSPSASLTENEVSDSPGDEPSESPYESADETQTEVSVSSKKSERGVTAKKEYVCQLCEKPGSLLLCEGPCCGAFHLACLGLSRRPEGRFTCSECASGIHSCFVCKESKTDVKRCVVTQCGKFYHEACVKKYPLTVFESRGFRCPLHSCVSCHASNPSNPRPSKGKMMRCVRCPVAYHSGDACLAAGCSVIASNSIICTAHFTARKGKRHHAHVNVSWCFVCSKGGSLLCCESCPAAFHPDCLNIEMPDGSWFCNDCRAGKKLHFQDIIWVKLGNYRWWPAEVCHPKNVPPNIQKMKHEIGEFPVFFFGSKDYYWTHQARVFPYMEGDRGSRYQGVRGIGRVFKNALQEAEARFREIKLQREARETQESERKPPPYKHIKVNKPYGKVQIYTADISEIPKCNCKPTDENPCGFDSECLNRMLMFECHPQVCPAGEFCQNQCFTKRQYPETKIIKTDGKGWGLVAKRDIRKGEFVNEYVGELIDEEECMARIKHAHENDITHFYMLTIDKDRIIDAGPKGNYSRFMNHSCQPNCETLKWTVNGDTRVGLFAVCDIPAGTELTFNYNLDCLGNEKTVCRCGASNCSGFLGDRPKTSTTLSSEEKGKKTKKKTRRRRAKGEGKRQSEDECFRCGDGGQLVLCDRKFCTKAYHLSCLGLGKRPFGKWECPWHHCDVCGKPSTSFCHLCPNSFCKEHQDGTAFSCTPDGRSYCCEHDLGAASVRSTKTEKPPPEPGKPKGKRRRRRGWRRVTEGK

[2] = target: T2, Polyadenylate-binding protein 1 (Homo sapiens, UniProt P11940); assay: PABP1 MLLE–PAM2 interaction inhibitors, dose response, miRNA deadenylation inhibitor project, biochemical, fluorescence polarization, Cy5-PAM2 peptide, secondary (AID 602260); assay type: functional; conditions: read-out: IC50_Mean
T2 sequence (P11940 whole entry): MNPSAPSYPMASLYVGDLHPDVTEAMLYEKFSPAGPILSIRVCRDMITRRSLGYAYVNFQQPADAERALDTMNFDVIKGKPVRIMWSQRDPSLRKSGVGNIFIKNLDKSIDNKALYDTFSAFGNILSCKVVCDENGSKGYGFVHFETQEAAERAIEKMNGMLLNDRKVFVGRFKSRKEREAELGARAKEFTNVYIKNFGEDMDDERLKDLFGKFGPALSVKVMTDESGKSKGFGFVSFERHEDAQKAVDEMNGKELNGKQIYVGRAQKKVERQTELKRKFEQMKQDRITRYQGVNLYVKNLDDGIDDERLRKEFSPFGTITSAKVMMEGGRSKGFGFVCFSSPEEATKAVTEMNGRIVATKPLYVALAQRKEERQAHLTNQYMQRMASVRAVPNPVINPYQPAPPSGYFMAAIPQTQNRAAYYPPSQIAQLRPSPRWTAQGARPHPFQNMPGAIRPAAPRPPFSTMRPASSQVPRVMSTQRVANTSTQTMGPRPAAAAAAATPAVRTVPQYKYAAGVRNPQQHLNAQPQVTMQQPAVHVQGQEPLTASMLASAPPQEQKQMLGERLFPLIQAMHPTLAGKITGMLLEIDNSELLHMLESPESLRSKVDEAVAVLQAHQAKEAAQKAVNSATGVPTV

Genome polyprotein = Genome polyprotein (dengue virus type 2, UniProt P29990); assay: Dengue-2 NS5 methyltransferase inhibitors, primary screen, biochemical, confirmation dose response (AID 588689); assay type: functional
Genome polyprotein, sequence (P29990 2492-3391 limits assumed): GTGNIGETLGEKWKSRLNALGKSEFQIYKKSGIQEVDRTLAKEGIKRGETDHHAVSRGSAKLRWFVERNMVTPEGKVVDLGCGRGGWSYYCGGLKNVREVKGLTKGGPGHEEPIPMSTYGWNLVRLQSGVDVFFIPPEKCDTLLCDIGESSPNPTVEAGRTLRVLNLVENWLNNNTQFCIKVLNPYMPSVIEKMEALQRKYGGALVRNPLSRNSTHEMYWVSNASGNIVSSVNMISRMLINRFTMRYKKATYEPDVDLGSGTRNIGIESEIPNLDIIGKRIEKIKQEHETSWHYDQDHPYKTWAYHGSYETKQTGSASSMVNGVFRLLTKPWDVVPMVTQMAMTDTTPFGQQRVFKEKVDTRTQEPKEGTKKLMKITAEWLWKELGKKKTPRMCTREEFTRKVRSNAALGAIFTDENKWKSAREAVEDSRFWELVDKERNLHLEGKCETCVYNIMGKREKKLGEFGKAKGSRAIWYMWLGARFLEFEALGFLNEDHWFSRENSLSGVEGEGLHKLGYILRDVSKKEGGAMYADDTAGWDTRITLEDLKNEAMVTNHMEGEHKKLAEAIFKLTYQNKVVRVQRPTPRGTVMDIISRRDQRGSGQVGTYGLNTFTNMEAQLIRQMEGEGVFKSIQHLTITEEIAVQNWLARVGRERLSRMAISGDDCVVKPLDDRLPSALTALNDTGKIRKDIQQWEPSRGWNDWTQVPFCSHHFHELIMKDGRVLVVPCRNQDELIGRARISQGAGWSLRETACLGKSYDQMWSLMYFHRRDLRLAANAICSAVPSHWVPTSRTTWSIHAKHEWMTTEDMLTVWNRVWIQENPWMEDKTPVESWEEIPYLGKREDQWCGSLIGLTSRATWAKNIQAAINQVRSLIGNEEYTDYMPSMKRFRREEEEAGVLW

[3] = target: T2, Polyadenylate-binding protein 1; assay: PABP1 MLLE–PAM2 binding inhibitor potency, dose response, biochemical, fluorescence polarization, FITC-PAM2 peptide (AID 602259); assay type: functional; conditions: read-out: IC50_Mean
[4] = inhibitors of clade B AD8 Env fusion, dose response, cell-based, cherry-pick (AID 652062); assay type: functional;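 note: luciferase signal from cell-cell fusion driven by HIV-1 clade B AD8 Env; potency is for inhibitors of fusion seen as a drop in luminescence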
[5] = off-target signal loss in HeLa-CEM21 co-culture – HeLa F-luc CTL cells, cherry-picked, counter-screen for HIV-1 Env fusion inhibitor project, dose response (AID 652040); assay type: functional, cell-based;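 note: potency for signal decrease marking cytotoxic or nonspecific inhibition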
[6] = ZM109 Env clade C HIV-1 fusion inhibitors, dose response, HeLa effector, CEM target cells, luciferase, cherry-pick (AID 652058); assay type: functional, cell-based
[7] = inhibitors of HIV Env-driven cell fusion, dose response, cherry-pick (AID 652057); assay type: functional, cell-based
H4 = assay: Luminescence Cell-Based Dose Response HTS to Identify Activators of 5'UTR Stem-Loop Driven Prion Protein mRNA Translation in H4 Neuroglioblastoma Cells. [Related pubchem assays: 1829 (Project Summary), 1814 (Primary HTS)]; assay type: functional; conditions: Homo sapiens
[8] = Luminescence Cell-Based Dose Response HTS to Identify Activators of Luciferase Translation or Activity in H4 […] Cells. [Related pubchem assays: 1829 (Project Summary), 1814 (Primary HTS)]; assay type: functional
[9] = Luminescence Cell-Based Dose Confirmation HTS to Identify Activators of 5'UTR Stem-Loop Driven Alpha-Synuclein mRNA Translation in H4 Neuroglioblastoma Cells. [Related pubchem assays: 1829 (Project Summary), 1814 (Primary HTS)]; assay type: functional
Vero = assay: cells; assay type: functional; conditions: Chlorocebus sabaeus
[10] = target: T3, Ubiquitin-conjugating enzyme E2 N (Homo sapiens, UniProt P61088); assay type: functional;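 note: Dose-response confirmation in a TR-FRET assay detecting UBC13-driven polyubiquitin chain formation, inhibition measured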
T3 sequence (P61088 whole entry): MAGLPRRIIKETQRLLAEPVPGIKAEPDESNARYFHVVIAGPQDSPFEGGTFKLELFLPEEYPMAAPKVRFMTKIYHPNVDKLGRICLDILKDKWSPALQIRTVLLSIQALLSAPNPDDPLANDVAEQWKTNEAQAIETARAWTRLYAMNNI

[11] = target: T4, Heat shock factor protein 1 (Mus musculus, UniProt P38532); assay: HSF1 potentiators in luciferase reporter cells, confirmation, cell-based, NIH3T3, luminescence, dose retest (AID 435004); assay type: functional;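 note: stress induced by proteasome inhibitor MG132 added 30 min after compound; luciferase reporter driven by HSF1 response element in NIH3T3 cells; actives raise luminescence as potentiators of the MG132 stress response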
T4 sequence (P38532 whole entry): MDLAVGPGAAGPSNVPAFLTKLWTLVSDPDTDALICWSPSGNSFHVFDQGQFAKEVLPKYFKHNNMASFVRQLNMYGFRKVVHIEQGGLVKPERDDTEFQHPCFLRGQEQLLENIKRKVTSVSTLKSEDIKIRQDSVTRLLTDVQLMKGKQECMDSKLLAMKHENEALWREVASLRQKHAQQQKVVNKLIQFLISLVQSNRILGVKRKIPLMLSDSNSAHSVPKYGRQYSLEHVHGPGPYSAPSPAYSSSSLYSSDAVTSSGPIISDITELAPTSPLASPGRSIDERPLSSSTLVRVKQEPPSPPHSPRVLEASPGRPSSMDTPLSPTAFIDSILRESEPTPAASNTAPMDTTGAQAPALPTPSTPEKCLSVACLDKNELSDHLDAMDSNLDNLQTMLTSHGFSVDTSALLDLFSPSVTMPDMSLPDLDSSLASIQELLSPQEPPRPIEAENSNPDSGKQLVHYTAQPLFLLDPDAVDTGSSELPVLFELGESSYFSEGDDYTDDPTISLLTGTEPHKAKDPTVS

[12] = Luminescence Cell-Based Dose Retest to Confirm Inhibitors of Cancer Stem Cells. [Related pubchem assays (depositor defined):AID2717, AID2721]; assay type: functional; conditions: Homo sapiens
Paired box protein Pax-8 = Paired box protein Pax-8 (Homo sapiens, UniProt Q06710); assay: inhibitors of PAX8-driven TPO luciferase reporter, dose response, RMG-I cells, cherry-pick (AID 687027); assay type: functional, cell-based;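 note: luciferase reporter driven by Pax8 target thyroperoxidase promoter measured by SteadyGlo luminescence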
Paired box protein Pax-8, sequence (Q06710 whole entry): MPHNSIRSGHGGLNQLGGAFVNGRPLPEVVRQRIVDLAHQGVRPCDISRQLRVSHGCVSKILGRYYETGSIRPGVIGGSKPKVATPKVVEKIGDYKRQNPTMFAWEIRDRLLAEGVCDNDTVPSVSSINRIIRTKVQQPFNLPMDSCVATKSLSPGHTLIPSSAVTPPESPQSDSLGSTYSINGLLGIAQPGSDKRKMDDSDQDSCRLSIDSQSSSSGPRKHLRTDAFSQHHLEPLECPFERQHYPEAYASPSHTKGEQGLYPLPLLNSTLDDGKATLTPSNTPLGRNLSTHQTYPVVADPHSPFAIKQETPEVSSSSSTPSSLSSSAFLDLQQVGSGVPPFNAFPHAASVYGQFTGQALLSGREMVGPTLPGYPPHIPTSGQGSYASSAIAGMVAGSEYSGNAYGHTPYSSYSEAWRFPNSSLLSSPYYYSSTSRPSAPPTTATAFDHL

## CCCCCCNc1c([N+](=O)[O-])cc(C)cc1[N+](=O)[O-]
[1]
  AC50: > 20 µM (inactive)

## O=C(CSc1nc(O)c(Cc2ccccc2)c(O)n1)Nc1nnc(SCc2ccccc2)s1
[2]
  IC50: > 66 µM (inactive)
Genome polyprotein
  IC50: 43.3 µM (active)
[3]
  IC50: > 66 µM (inactive)

## C=C(C)c1cccc(C(C)(C)NC(=O)Nc2ccc(Cl)cn2)c1
[4]
  AC50: 12.8 µM (active)
[5]
  AC50: 16.5 µM (active)
[6]
  AC50: 0.604 µM (active)
[7]
  AC50: 50.7 µM (active)

## O=C(O)c1cc(N/N=C/c2cccs2)ccc1Cl
H4
  EC50: 3.38 µM (active)
[8]
  EC50: 0.632 µM (active)
[9]
  EC50: 19 µM (active)

## Cc1nc(Cl)sc1C(=O)Nc1cc(F)cc(F)c1
Vero
  CC50: > 25 µM (active)

## COc1ccc(NC(=O)C[S+]([O-])CC(=O)Nc2cc(Cl)ccc2OC)cc1 (configuration not stated)
[10]
  IC50: > 20 µM (inactive)

## NC1=NC[C@H](Cc2ccc(O)cc2)N1CCc1cc(C(F)(F)F)cc(C(F)(F)F)c1
[10]
  IC50: > 20 µM (inactive)

## O=C(O)c1cc([N+](=O)[O-])c(NCCC2=CCCCC2)c([N+](=O)[O-])c1
Genome polyprotein
  IC50: 72.8 µM (active)
[11]
  EC50: > 260 µM (inactive)

## O=C(Nc1cc(N2CCCCC2)ncn1)c1ccc(F)cc1
H4
  EC50: 14.1 µM (active)
[8]
  EC50: 17.3 µM (active)
[9]
  EC50: > 120 µM (not active)

## O=C(/C=C/c1ccccc1Cl)c1ccc[nH]1
H4
  EC50: 38.9 µM (active)
[8]
  EC50: 24.3 µM (active)
[9]
  EC50: 44.6 µM (active)

## CCN(CC)CCOc1ccc(/C(=C(/Cl)c2ccccc2)c2ccccc2)cc1 [ENCLOMIPHENE]
[12]
  AC50: 1.6 µM (active)
[10]
  IC50: > 20 µM (inactive)

## CCOC(=O)N1CCN(C(=O)CCN2C(=O)/C(=C\c3ccccc3OC)SC2=S)CC1
Vero
  CC50: > 25 µM (active)

## CCC1(C)NC(=O)N(CC(=O)N2CCC(Cc3ccccc3)CC2)C1=O (configuration not stated)
[10]
  IC50: > 20 µM (inactive)

## CCOC(=O)C1=CN(Cc2cccc(-c3cccnc3)c2)S(=O)(=O)N(C)C1C (configuration not stated)
Paired box protein Pax-8
  AC50: 59.2 µM (active)
